Consider 1 compound from patent publication EP4458804A1, “METHOD FOR PRODUCING AN OBJECT, PHENALEN-1-ONE COMPOUND AND USE THEREOF” (TriOptoTec GmbH, priority 2023, dated 2024).

SMILES strings stand for the structures.

This data set can be described thus: Leaching stress test B following DIN EN 16105, nine immersion cycles (Beispiel 10 B). The class given is physicochemical. The settings on record: Immersion test B (DIN EN 16105), medium Wasser, plastic TPU, Rezeptur 1 nach Beispiel 1. The protocol: Der Test wurde in Anlehnung an die DIN EN 16105:2011-12 ("[…] zur Bestimmung der Freisetzung von Substanzen aus Beschichtungen in intermittierendem […] unter A) beschrieben erzeugt. Es wurde vollentsalztes Wasser mit einem pH-Wert von (6 ± 1) und einer Wassertemperatur von (22 ± 3) °C verwendet. Beim Test wurden jeweils neun Tauchzyklen durchgeführt. […] Die erforderliche Wassermenge (z. B. 250 mL pro 100 cm2) musste hinzugefügt werden. Für jedes Eintauchen wurde frisches deionisiertes Wasser verwendet. Jeder Probekörper wurde in […]. Die […] so […] von Wasser mit der untersuchten Oberfläche möglich war. Der Tauchbehälter wurde dabei abgedeckt, um ein Verdunsten von Wasser während des Eintauchens zu […]. Der Überschuss wird direkt im UV-VIS-Spektrometer vermessen, vor dem ersten Immersionszyklus und nach Zyklen 1, 3, 5, 7 und 9. Die Ausgangswerte (Absorptionsmaximum des jeweiligen […] dabei zwischen 0,05 A.U. und 1,00 A.U. liegen. Die […] Immersionstest B

Regarding `CC(C)(O)c1cc[n+](CC2=Cc3cccc4cccc(c34)C2=O)cc1` [F-24b], the “Abs. nach Auswaschen” value is given as 0,006 and the “Berechneter Verlust in %” value is reported as 4,9%.
